{
  "source": "ChEMBL document CHEMBL4038307",
  "about": "“Influence of a Basic Side Chain on the Properties of Hypoxia-Selective Nitro Analogues of the Duocarmycins: Demonstration of Substantial Anticancer Activity in Combination with Irradiation or Chemotherapy” (J Med Chem, 2017)",
  "key": {"[1]": {"test_system": "Mus musculus", "assay": "Toxicity in CD-1 Foxn1 nude mouse xenografted with human 22Rv1 cells assessed as change in body weight at 32 umol/kg, ip once in every two weeks after 100 to 120 days", "assay_type": "organism-based", "details": "in vivo"}, "[2]": {"test_system": "CWR22R", "assay": "Antitumor activity against human 22Rv1 cells xenografted in CD-1 Foxn1 nude mouse assessed as median tumor growth delay time at 32 umol/kg, ip once in every two weeks after 100 to 120 days", "assay_type": "functional"}, "[3]": {"test_system": "CWR22R", "assay": "Antitumor activity against human 22Rv1 cells xenografted in CD-1 Foxn1 nude mouse assessed as tumor stasis at 32 umol/kg, ip once in every two weeks after 100 to 120 days", "assay_type": "functional, organism-based"}, "[4]": {"test_system": "SiHa", "assay": "Antitumor activity against human SiHa cells xenografted in CD-1 Foxn1 nude mouse assessed as log reduction in colony forming cells under hypoxic condition at 42 umol/kg, iv treated 5 mins after gamma irradiation measured after 18 hrs by excision assay", "assay_type": "functional"}, "[5]": {"test_system": "A2780", "assay": "Antitumor activity against human A2780 cells xenografted in CD-1 Foxn1 nude mouse assessed as tumor regression at 42 to 56 umol/kg, iv after 8 to 23 days in presence of gemcitabine", "assay_type": "functional, organism-based"}, "[6]": {"test_system": "NCI-H1299", "assay": "Antitumor activity against human H1299 cells xenografted in CD-1 Foxn1 nude mouse assessed as reduction in colony forming cells at 75 umol/kg, iv treated 5 mins after gamma irradiation measured after 18 hrs by excision assay", "assay_type": "functional, organism-based"}, "[7]": {"test_system": "Mus musculus", "assay": "Toxicity in CD-1 Foxn1 nude mouse xenografted with human SiHa cells assessed as body weight change at 42 to 56 umol/kg, iv after 100 to 120 days in presence of gemcitabine", "assay_type": "organism-based", "details": "in vivo"}, "[8]": {"test_system": "A2780", "assay": "Antitumor activity against human A2780 cells xenografted in CD-1 Foxn1 nude mouse assessed as tumor regression at 42 to 56 umol/kg, iv after 100 days", "assay_type": "functional, organism-based"}, "[9]": {"test_system": "A2780", "assay": "Antitumor activity against human A2780 cells xenografted in CD-1 Foxn1 nude mouse assessed as tumor regression at 42 to 56 umol/kg, iv after 100 days in presence of gemcitabine", "assay_type": "functional, organism-based"}, "[10]": {"test_system": "NCI-H460", "assay": "Antitumor activity against human H460 cells xenografted in CD-1 Foxn1 nude mouse assessed as reduction in colony forming cells under hypoxic condition at 75 umol/kg, iv treated 5 mins after gamma irradiation measured after 18 hrs by excision assay", "assay_type": "functional, organism-based"}, "[11]": {"test_system": "HCT-116", "assay": "Antitumor activity against human HCT116 cells xenografted in CD-1 Foxn1 nude mouse assessed as reduction in colony forming cells at 56 umol/kg, iv treated 5 mins after gamma irradiation measured after 18 hrs by excision assay", "assay_type": "functional, organism-based"}, "[12]": {"test_system": "SiHa", "assay": "Antitumor activity against human SiHa cells xenografted in CD-1 Foxn1 nude mouse assessed as tumor regression at 42 to 56 umol/kg, iv after more than 100 days", "assay_type": "functional, organism-based"}, "[13]": {"test_system": "SiHa", "assay": "Antitumor activity against human SiHa cells xenografted in CD-1 Foxn1 nude mouse assessed as tumor regression at 42 to 56 umol/kg, iv after more than 100 days in presence of gemcitabine", "assay_type": "functional, organism-based"}, "[14]": {"test_system": "Mus musculus", "assay": "Toxicity in CD-1 Foxn1 nude mouse xenografted with human SiHa cells assessed as sporadic acute toxicity at 42 to 56 umol/kg, iv", "details": "in vivo"}, "[15]": {"test_system": "CWR22R", "assay": "Antitumor activity against human 22Rv1 cells xenografted in CD-1 Foxn1 nude mouse assessed as reduction in colony forming cells under hypoxic condition at 30 umol/kg, iv treated 5 mins after gamma irradiation measured after 18 hrs by excision assay", "assay_type": "functional, organism-based"}, "[16]": {"test_system": "A2780", "assay": "Antitumor activity against human A2780 cells xenografted in CD-1 Foxn1 nude mouse assessed as delay in tumor growth at 100 umol/kg, ip four times for every three days after 100 to 120 days", "assay_type": "functional, organism-based"}, "[17]": {"test_system": "Mus musculus", "assay": "Toxicity in CD-1 Foxn1 nude mouse xenografted with human SiHa cells assessed as lose in body weight at 133 umol/kg, ip four times for every three days after 100 to 120 days", "assay_type": "organism-based", "details": "in vivo"}, "[18]": {"test_system": "SiHa", "assay": "Antitumor activity against human SiHa cells xenografted in CD-1 Foxn1 nude mouse assessed as tumor regrowth at 237 umol/kg, ip four times for every three days after 100 to 120 days", "assay_type": "functional, organism-based"}, "[19]": {"test_system": "A2780", "assay": "Antitumor activity against human A2780 cells xenografted in CD-1 Foxn1 nude mouse assessed as tumor regression at 133 umol/kg, ip four times for every three days after 100 to 120 days", "assay_type": "functional, organism-based"}, "[20]": {"test_system": "A2780", "assay": "Antitumor activity against human A2780 cells xenografted in CD-1 Foxn1 nude mouse assessed as median tumor growth delay time at 15 umol/kg, iv after 100 to 120 days in presence of gemcitabine", "assay_type": "functional"}, "[21]": {"test_system": "A2780", "assay": "Antitumor activity against human A2780 cells xenografted in CD-1 Foxn1 nude mouse assessed as tumor regrowth at 15 umol/kg, iv after 100 to 120 days", "assay_type": "functional, organism-based"}, "[22]": {"test_system": "CWR22R", "assay": "Antitumor activity against human 22Rv1 cells xenografted in CD-1 Foxn1 nude mouse assessed as tumor regression at 14 umol/kg, iv after 100 to 120 days in presence of docetaxel", "assay_type": "functional, organism-based"}, "[23]": {"test_system": "CWR22R", "assay": "Antitumor activity against human 22Rv1 cells xenografted in CD-1 Foxn1 nude mouse assessed as median tumor growth delay time at 15 umol/kg, iv after 100 to 120 days in presence of docetaxel", "assay_type": "functional"}, "[24]": {"test_system": "CWR22R", "assay": "Antitumor activity against human 22Rv1 cells xenografted in CD-1 Foxn1 nude mouse assessed as tumor regrowth at 14 umol/kg, iv after 100 to 120 days", "assay_type": "functional, organism-based"}, "[25]": {"test_system": "Mus musculus", "assay": "Toxicity in CD-1 Foxn1 nude mouse xenografted with human 22Rv1 cells assessed as change in body weight at 14 umol/kg, ip", "details": "in vivo"}, "[26]": {"test_system": "Mus musculus", "assay": "Toxicity in CD-1 Foxn1 nude mouse xenografted with human A2780 cells assessed as change in body weight at 15 umol/kg, iv after 100 to 120 days in presence of gemcitabine", "assay_type": "organism-based", "details": "in vivo"}, "[27]": {"test_system": "Mus musculus", "assay": "Toxicity in CD-1 Foxn1 nude mouse xenografted with human A2780 cells at 15 umol/kg, iv after 100 to 120 days in presence of gemcitabine", "assay_type": "organism-based", "details": "in vivo"}, "[28]": {"test_system": "Mus musculus", "assay": "Toxicity in CD-1 Foxn1 nude mouse xenografted with human 22Rv1 cells at 14 umol/kg, ip", "details": "in vivo"}},
  "note": "Calls of active or inactive are those of the source. The calls are words filed in the database; no cut-off is given here.",
  "data": [
    {"smiles": "CC(=O)O[C@@]12CO[C@@H]1C[C@H](O)[C@@]1(C)C(=O)[C@H](O)C3=C(C)[C@@H](OC(=O)[C@H](O)[C@@H](NC(=O)OC(C)(C)C)c4ccccc4)C[C@@](O)([C@@H](OC(=O)c4ccccc4)[C@H]21)C3(C)C", "note": "[DOCETAXEL ANHYDROUS]", "values": [
      {"measurement": "Activity", "setting": "[1]", "value": "Toxic"},
      {"measurement": "Time", "setting": "[2]", "value": 13, "unit": "days"},
      {"measurement": "Activity", "setting": "[3]", "value": "inactive"}
    ]},
    {"smiles": "CN(C)CCOc1ccc2[nH]c(C(=O)N3CC(CCl)c4c3cc([N+](=O)[O-])c3cc(S(=O)(=O)NCCOP(=O)(O)O)ccc43)cc2c1", "note": "(stereo not drawn)", "values": [
      {"measurement": "Activity", "setting": "[4]", "value": "Active"},
      {"measurement": "Activity", "setting": "[5]", "value": "Active"},
      {"measurement": "Activity", "setting": "[6]", "value": "Active"},
      {"measurement": "Activity", "setting": "[7]", "value": "Non-Toxic"},
      {"measurement": "Activity", "setting": "[8]", "value": "inactive"},
      {"measurement": "Activity", "setting": "[9]", "value": "Active"},
      {"measurement": "Activity", "setting": "[10]", "value": "Active"},
      {"measurement": "Activity", "setting": "[11]", "value": "Active"},
      {"measurement": "Activity", "setting": "[12]", "value": "Active"},
      {"measurement": "Activity", "setting": "[13]", "value": "Active"},
      {"measurement": "Activity", "setting": "[14]", "value": "Toxic"},
      {"measurement": "Activity", "setting": "[15]", "value": "Active"}
    ]},
    {"smiles": "Nc1ccn([C@@H]2O[C@H](CO)[C@@H](O)C2(F)F)c(=O)n1", "note": "[GEMCITABINE]", "values": [
      {"measurement": "Activity", "setting": "[16]", "value": "Active"},
      {"measurement": "Activity", "setting": "[17]", "value": 5, "unit": "%"},
      {"measurement": "Activity", "setting": "[18]", "value": "Active"},
      {"measurement": "Activity", "setting": "[19]", "value": "Active"}
    ]},
    {"smiles": "Nc1cc2c(c3ccc(S(=O)(=O)NCCOP(=O)(O)O)cc13)C(CCl)CN2C(=O)c1cc2cc(OCCN3CCOCC3)ccc2[nH]1", "note": "(stereo not drawn)", "values": [
      {"measurement": "Activity", "setting": "[4]", "value": ">1"},
      {"measurement": "Activity", "setting": "[6]", "value": "Active"},
      {"measurement": "Time", "setting": "[20]", "value": 14, "unit": "days"},
      {"measurement": "Activity", "setting": "[21]", "value": "inactive"},
      {"measurement": "Activity", "setting": "[22]", "value": "Active"},
      {"measurement": "Time", "setting": "[23]", "value": 17, "unit": "days"},
      {"measurement": "Activity", "setting": "[24]", "value": "inactive"},
      {"measurement": "Activity", "setting": "[25]", "value": "Non-Toxic"},
      {"measurement": "Activity", "setting": "[10]", "value": "Active"},
      {"measurement": "Activity", "setting": "[11]", "value": "Active"},
      {"measurement": "Activity", "setting": "[26]", "value": "Non-Toxic"},
      {"measurement": "Activity", "setting": "[27]", "value": "Non-Toxic"},
      {"measurement": "Activity", "setting": "[28]", "value": "Non-Toxic"},
      {"measurement": "Activity", "setting": "[15]", "value": "Active"}
    ]}
  ]
}
